Patent US9586968B2, “Bicycloamine-substituted-N-benzenesulfonamide compounds with selective activity in voltage-gated sodium channels” (Merck Sharp & Dohme Corp., priority 2013, dated 2017)

How the values were obtained:
human Nav1.5 = target: T1, human Nav1.5 (Homo sapiens, UniProt Q14524); assay: PatchXpress automated patch-clamp, inactivated state block of Nav1.5 (selectivity); format: cell-based; details: determined by PatchXpress measurement, HEK 293 cells
T1 construct: expressed in transfected cells
T1 sequence (Q14524 whole entry): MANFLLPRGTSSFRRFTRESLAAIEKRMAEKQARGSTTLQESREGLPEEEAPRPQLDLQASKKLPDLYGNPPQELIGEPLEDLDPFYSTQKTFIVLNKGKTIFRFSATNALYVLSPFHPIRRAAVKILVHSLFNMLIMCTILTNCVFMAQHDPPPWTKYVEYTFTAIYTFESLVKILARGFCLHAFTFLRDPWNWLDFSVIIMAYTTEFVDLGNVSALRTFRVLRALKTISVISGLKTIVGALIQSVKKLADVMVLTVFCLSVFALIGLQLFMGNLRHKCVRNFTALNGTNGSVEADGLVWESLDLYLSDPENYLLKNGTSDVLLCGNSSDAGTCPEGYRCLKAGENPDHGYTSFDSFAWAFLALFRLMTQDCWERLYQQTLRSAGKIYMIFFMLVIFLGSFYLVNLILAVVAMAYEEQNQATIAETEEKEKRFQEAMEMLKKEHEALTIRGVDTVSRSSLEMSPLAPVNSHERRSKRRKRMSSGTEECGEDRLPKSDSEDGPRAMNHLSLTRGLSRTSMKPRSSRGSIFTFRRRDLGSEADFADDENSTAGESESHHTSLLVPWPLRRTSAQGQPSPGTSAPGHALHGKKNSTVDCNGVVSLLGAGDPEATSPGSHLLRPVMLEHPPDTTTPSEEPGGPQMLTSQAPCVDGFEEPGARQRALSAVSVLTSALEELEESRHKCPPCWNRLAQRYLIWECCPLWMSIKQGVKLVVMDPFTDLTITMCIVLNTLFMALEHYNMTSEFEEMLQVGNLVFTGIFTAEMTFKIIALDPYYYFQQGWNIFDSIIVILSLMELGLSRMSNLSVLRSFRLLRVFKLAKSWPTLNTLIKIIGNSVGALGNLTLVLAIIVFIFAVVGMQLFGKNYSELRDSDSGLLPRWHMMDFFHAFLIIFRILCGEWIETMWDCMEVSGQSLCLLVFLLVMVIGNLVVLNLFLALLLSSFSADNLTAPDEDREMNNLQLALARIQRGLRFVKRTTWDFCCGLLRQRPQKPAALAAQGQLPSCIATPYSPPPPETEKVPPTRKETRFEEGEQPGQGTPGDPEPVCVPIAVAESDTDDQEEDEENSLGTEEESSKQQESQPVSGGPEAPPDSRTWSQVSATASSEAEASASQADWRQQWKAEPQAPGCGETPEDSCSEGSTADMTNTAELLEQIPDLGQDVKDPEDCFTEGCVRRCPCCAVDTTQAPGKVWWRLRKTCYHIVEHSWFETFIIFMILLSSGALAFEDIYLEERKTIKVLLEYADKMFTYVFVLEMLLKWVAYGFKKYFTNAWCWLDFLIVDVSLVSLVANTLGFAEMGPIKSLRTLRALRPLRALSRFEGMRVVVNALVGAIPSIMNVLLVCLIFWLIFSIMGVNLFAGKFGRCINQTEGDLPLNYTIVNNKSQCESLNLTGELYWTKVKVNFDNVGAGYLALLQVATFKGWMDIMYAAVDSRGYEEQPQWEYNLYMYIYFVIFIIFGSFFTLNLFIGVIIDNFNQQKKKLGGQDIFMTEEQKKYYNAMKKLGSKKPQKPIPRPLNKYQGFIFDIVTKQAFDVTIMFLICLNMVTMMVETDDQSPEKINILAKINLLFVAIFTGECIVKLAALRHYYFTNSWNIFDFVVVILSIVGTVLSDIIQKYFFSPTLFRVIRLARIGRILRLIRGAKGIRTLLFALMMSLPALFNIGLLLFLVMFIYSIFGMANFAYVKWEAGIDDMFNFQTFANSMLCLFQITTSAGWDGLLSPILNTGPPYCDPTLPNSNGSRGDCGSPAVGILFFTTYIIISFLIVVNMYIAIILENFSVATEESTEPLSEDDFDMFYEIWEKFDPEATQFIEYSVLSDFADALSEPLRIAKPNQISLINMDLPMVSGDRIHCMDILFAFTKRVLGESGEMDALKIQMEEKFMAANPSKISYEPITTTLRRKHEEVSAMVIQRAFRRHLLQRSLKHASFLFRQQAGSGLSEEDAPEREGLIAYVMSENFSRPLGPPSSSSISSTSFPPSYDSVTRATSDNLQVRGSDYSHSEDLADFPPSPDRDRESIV
Protocol: (§1) Compounds were tested on human Nav1.7 and Nav1.5 channels stably expressed in HEK 293 cells. Activity toward Nav 1.7 and Nav 1.5 channels was assessed using the following assay methodology.
(§2) Sodium Current Measurements on the PatchXpress 7000®:
(§3) To measure inactivated state block of sodium channels, test compounds were characterized in an automated PatchXpress® assay (Molecular Devices) using a double-pulse protocol on human Nav1.7 and Nav1.5 channels stably expressed in HEK 293 cells. Cells were held at a potential 20 mV negative to V0.5 inact. An 8000 ms pre-pulse 7 mV positive to V0.5 inact was given followed by a hyperpolarizing 2 ms pulse to −120 mV and a 20 ms test pulse to −20 mV. Protocol was applied to cells in the absence, presence of compound and after washout. The temperature of PatchXpress instruments was maintained at 22° C. The following recording solutions were used. Internal solution (mM): 30 CsCl, 5 HEPES, 10 EGTA, 120 CsF, 5 NaF, 2 MgCl2. External solution (mM): 120 NMDG, 40 NaCl, 1 KCl, 0.5 MgCl2, 5 HEPES, 2.7 CaCl2.
(§4) For all electrophysiology experiments, offline analysis was used to correct for current rundown and to determine percent inhibition as a function of drug concentration. IC50 values were determined by fitting to the Hill equation.

human Nav1.7 = target: T2, human Nav1.7 (Homo sapiens, UniProt Q15858); assay: PatchXpress automated patch-clamp, inactivated state block of Nav1.7; format: cell-based; details: channels stably expressed in HEK 293 cells, 22° C., read-out: potency for the Nav 1.7 sodium ion channel (as measured by PatchXpress)
T2 construct: expressed in transfected cells
T2 sequence (Q15858 whole entry): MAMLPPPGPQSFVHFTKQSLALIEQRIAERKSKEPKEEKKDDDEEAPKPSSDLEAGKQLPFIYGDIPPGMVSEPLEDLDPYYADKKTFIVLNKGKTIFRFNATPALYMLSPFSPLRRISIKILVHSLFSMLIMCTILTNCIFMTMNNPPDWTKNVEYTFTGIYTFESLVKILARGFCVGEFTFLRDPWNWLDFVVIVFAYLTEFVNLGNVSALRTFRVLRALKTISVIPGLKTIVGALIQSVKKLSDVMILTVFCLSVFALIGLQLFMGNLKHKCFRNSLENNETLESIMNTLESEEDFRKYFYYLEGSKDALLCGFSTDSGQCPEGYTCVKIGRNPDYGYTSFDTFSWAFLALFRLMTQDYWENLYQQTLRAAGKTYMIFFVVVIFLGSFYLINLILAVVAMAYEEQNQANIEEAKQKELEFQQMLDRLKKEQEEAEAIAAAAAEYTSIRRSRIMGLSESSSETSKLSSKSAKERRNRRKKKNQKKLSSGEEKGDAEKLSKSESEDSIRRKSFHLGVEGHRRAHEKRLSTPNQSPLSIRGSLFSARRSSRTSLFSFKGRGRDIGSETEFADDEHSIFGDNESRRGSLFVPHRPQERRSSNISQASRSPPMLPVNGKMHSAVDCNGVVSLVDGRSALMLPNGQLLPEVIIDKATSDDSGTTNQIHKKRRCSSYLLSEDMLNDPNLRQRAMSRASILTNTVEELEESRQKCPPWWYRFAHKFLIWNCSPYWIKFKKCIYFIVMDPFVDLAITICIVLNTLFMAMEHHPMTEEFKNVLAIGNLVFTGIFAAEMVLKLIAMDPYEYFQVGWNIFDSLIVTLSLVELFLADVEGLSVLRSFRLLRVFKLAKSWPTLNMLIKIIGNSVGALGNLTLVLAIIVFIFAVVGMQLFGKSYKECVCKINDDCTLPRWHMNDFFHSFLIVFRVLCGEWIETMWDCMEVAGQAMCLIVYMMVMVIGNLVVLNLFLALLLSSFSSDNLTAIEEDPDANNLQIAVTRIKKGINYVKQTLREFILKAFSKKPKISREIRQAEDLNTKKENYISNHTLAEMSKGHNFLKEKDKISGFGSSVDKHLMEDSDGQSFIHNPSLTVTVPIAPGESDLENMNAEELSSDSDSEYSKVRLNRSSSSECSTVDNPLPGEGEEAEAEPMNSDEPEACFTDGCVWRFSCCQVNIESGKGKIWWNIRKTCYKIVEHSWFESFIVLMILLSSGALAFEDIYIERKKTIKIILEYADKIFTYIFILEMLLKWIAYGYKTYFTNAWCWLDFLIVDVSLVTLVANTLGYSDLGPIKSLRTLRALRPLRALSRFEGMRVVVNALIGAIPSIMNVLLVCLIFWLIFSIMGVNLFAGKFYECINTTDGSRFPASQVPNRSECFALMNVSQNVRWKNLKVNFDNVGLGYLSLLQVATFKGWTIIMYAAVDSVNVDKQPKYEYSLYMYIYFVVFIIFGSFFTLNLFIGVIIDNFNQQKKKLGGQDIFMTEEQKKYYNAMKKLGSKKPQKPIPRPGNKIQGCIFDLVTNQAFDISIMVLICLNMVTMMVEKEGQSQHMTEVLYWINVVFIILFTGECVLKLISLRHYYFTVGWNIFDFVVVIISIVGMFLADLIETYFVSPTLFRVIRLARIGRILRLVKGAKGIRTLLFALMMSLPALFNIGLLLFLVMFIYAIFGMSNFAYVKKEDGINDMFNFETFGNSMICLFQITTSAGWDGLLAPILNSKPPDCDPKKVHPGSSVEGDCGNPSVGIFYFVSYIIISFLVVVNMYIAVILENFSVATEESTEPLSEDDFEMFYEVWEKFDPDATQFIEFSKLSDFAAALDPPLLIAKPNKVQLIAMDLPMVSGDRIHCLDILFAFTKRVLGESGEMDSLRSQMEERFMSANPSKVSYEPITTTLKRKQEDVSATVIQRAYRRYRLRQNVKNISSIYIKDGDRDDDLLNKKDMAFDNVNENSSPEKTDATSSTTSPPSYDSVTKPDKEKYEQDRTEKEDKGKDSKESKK
Protocol: as §1, §2, §3, §4

Structure (SMILES) | IC50 (human Nav1.7) [nM] | ratio of Nav1.7 potency:Nav 1.5 potency (human Nav1.5)
O=S(=O)(Nc1ncc(F)s1)c1cc(Cl)c(NCC23CCCN2CC(F)C3)cc1F (single isomer, unassigned) [Ex9-10-B, 5-chloro-2-fluoro-4-((((2S,7aR or 2R,7aS)-2-fluoro-hexahydro-1H-pyrrolizin-7a-yl)-methyl)amino)-N-(5-fluorothiazol-2-yl)-benzenesulfonamide] | 58 | 122
O=S(=O)(Nc1nncs1)c1cc(Cl)c(NCC23CCCN2CCC3)cc1F [Ex1-5, 5-chloro-2-fluoro-4-[(tetrahydro-1H-pyrrolizin-7a(5H)-ylmethyl)amino]-N-(1,3,4-thiadiazol-2-yl)benzenesulfonamide] | 370 | 81
O=S(=O)(Nc1ncc(Cl)s1)c1cc(Cl)c(NCC23CCCN2CC2(C3)OCCO2)cc1F (single isomer, unassigned) [Ex10-9-B, (R or S)-5-chloro-N-(5-chloro-thiazol-2-yl)-2-fluoro-4-(((hexahydrospiro[[1,3]-dioxolane-2,2′-pyrrolizin]-7a′-yl)-methyl)amino)-benzenesulfonamide] | 108 | 277
C[C@H]1CC[C@]2(CNc3cc(F)c(S(=O)(=O)Nc4nccs4)cc3Cl)CCCN12 (single isomer, unassigned) [Ex11-8-A] | 35 | 305
O=S(=O)(Nc1ncc(Br)s1)c1cc(Cl)c(NCC23CCCN2CCC3)cc1F [Ex1-13, N-(5-bromothiazol-2-yl)-5-chloro-2-fluoro-4-(((hexahydro-1H-pyrrolizin-7a-yl)methyl)amino)benzene-sulfonamide] | 43 | 1507
COc1ccc(CC2CN3CCCC3(CNc3cc(F)c(S(=O)(=O)Nc4ncc(F)s4)cc3Cl)C2)cc1 (single isomer, unassigned) [Ex15-12-B, 5-chloro-2-fluoro-N-(5-fluorothiazol-2-yl)-4-((((2S,7aR or 2R,7aS)-2-(4-methoxybenzyl)hexahydro-1H-pyrrolizin-7a-yl)methyl)amino)benzene-sulfonamide] | 66 | 99
O=S(=O)(Nc1nccs1)c1ccc(NCC23CCCN2CCC3)c(Cl)c1 [Ex1-14, 3-chloro-4-(((hexahydro-1H-pyrrolizin-7a-yl)methyl)amino)-N-(thiazol-2-yl)benzenesulfonamide] | 48 | 337

These reach a lower IC50 (human Nav1.7). Values come first.

IC50 (human Nav1.7) [nM] | Structure (SMILES) | ratio of Nav1.7 potency:Nav 1.5 potency (human Nav1.5)
32 | Cc1csc(NS(=O)(=O)c2cc(Cl)c(NCC34CCCN3CC(C)(C)C4)cc2F)n1 (racemic) [Ex8-25, (R and S)-5-chloro-4-(((2,2-dimethylhexahydro-1H-pyrrolizin-7a-yl)methyl)amino)-2-fluoro-N-(4-methylthiazol-2-yl)benzenesulfonamide] | 947
27 | CC1CN2CCCC2(CNc2ccc(S(=O)(=O)Nc3nccs3)cc2C#N)C1 (racemic) [Ex4-8, 3-cyano-4-{[((2S,7aR and 2R,7aS)-2-methyltetrahydro-1H-pyrrolizin-7a(5H)-yl)methyl]amino}-N-(1,3-thiazol-2-yl)benzenesulfonamide] | 1109
23 | CC1(C)CN2CCCC2(CNc2cc(F)c(S(=O)(=O)Nc3ncc(F)s3)cc2Cl)C1 (single isomer, unassigned) [Ex8-21-B, (S or R) 5-chloro-4-(((2,2-dimethylhexahydro-1H-pyrrolizin-7a-yl)methyl)-amino)-2-fluoro-N-(5-fluorothiazol-2-yl)-benzenesulfonamide] | 1290
7 | O=S(=O)(Nc1ncc(F)s1)c1ccc(NCC23CCCN2CC2(CC2)C3)c(C(F)(F)F)c1 (single isomer, unassigned) [Ex13-12-B, (R or S)-N-(5-fluorothiazol-2-yl)-4-(((hexahydrospiro-[cyclopropane-1,2′-pyrrolizin]-7a′-yl)methyl)-amino)-3-(trifluoromethyl)-benzenesulfonamide] | 3240
